Test results published in article PMC11448502, “Cryo-EM structures of the human P2X1 receptor reveal subtype-specific architecture and antagonism by supramolecular ligand-binding” (Nature Communications, 2024).
Changes are numbered by the printed parent chain. Several values for one entry are separate records, joined by “and”; a condition that tells them apart may be missing. Equal entries are not always repeated. Blank lines part the entries; values can stand above or below the compound they belong to.

Assays:
thrombosis = conditions: in vivo; cited from earlier work
P2X1 [1] = system: P2X1; set-up: method as in doi.org/10.1074/jbc.M114.592246; conditions: reviewer comment; ref doi.org/10.1074/jbc.M114.592246; cited from earlier work
hP2X1 K136A = molecular target: T1, hP2X1 K136A (Homo sapiens, UniProt P51575, K136A); experiment: NF449 inhibition dose response (IC50), TEVC in oocytes; format: cell-based; conditions: for Normalized Current: hP2X1 K136A
T1 construct: hP2X1 mRNA that was made from linearized full-length wild-type or mutant pcDNA 3.1x; expressed in transfected cells; host or cells: Xenopus laevis oocytes (mRNA injection)
T1 sequence (P51575 1-399 K136A): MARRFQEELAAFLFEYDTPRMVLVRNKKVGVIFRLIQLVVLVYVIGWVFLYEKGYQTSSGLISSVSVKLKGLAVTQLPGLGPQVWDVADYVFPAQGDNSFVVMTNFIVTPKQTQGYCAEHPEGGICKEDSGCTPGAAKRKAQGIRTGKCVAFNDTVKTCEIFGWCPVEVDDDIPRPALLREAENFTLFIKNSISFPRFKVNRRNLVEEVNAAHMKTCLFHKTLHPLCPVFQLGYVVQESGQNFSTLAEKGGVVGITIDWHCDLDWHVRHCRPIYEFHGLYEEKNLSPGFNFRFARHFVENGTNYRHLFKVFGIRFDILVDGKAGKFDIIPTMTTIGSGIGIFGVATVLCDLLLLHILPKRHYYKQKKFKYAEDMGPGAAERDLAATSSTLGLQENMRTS
Protocol: (§1) Oocytes were purchased defolliculated from Ecocyte Bioscience in Barth’s Solution (88 mM NaCl, 1 mM KCl, 0.82 mM MgSO4, 0.33 mM Ca(NO3)2, 0.41 mM CaCl2, 2.4 mM NaHCO3, 5 mM Tris-HCl) supplemented with penicillin (100 U/mL) and streptomycin (100 µg/mL). Xenopus laevis oocytes were then injected with 50 nL of 100 ng/μL hP2X1 mRNA that was made from linearized full-length wild-type or mutant pcDNA 3.1x according to the protocol provided in the mMessage mMachine kit (Invitrogen). Injected oocytes were allowed to express for ~20 hours at 18 °C before recording was performed.
(§2) Data acquisition was performed using the Oocyte Clamp OC-725C amplifier and pClamp 8.2 software. Buffers were applied using a gravity fed RSC-200 Rapid Solution Changer that flows at ~5 mL/min. All experiments use Sutter filamented glass 10 cm in length with an inner diameter of 0.69 mm and an outer diameter of 1.2 mm to impale oocytes and clamp the holding voltage at −60 mV. Experiments were recorded in buffer containing 10 mM HEPES (pH 7.4), 140 mM NaCl, 5 mM KCl, 2 mM CaCl2, 2 mM MgCl2, and 10 mM glucose.
(§3) To test a dilution series of an antagonist at discrete concentrations, 10 µM ATP (2 mM ATP for K309A only) was first applied to evoke an initial maximum current. The oocyte was then washed with buffer for one minute, followed by one minute application of an antagonist test-concentration, and concluded by co-application of the same test concentration with 10 µM ATP (2 mM ATP for K309A). The antagonized signal was then normalized against the initial ATP excitatory signal. Each test concentration was performed in triplicate across different oocytes. The data was then fit to a nonlinear regression named “[inhibitor] vs. response – Variable slope (four parameters)” in Prism 9 to produce a sigmoidal curve and afford an IC50 value. Each singular condition was used to generate an average which is reported plus or minus its standard deviation between three discrete trials.

hP2X1 R292A = molecular target: T2, hP2X1 R292A (Homo sapiens, UniProt P51575, R292A); experiment: as above; format: cell-based; conditions: for Normalized Current: hP2X1 R292A
T2 construct: hP2X1 mRNA that was made from linearized full-length wild-type or mutant pcDNA 3.1x; expressed in transfected cells; host or cells: Xenopus laevis oocytes (mRNA injection)
T2 sequence (P51575 1-399 R292A): T1 sequence (P51575 1-399 K136A) with A136K, R292A
Protocol: as §1, §2, §3

hP2X3 WT = molecular target: T3, hP2X3 WT (Homo sapiens, UniProt P56373); experiment: ATP dose response (EC50), TEVC in oocytes; format: cell-based
T3 construct: expressed in transfected cells
T3 sequence (P56373 1-397): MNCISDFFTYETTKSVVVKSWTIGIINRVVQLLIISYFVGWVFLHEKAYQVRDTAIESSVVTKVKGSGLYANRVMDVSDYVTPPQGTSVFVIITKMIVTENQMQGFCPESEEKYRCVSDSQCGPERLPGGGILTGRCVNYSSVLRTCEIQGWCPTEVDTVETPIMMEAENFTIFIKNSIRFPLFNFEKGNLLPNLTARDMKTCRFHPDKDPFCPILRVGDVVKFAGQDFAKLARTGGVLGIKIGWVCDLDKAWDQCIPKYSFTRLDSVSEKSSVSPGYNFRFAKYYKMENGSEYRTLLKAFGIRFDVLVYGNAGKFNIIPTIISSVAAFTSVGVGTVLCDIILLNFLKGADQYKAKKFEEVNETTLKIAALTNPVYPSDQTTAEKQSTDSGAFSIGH

P2X1 [2] = system: P2X1; set-up: method as in doi: 10.1111/bph.15299; conditions: reviewer comment, ref doi: 10.1111/bph.15299, read-out: EC50 of ATP; cited from earlier work

Structure (SMILES): O=C(Nc1cc(C(=O)Nc2ccc(S(=O)(=O)O)cc2S(=O)(=O)O)cc(C(=O)Nc2ccc(S(=O)(=O)O)cc2S(=O)(=O)O)c1)Nc1cc(C(=O)Nc2ccc(S(=O)(=O)O)cc2S(=O)(=O)O)cc(C(=O)Nc2ccc(S(=O)(=O)O)cc2S(=O)(=O)O)c1 [NF449, 4,4’,4”,4’’’-(carbonylbis(imino-5,1,3-benzenetriylbis(carbonylimino)))tetrakis-benzene-1,3-disulfonic acid]
effect on thrombosis (thrombosis): inhibitory effect
Hill coefficient (P2X1 [1]): ~ 1.4
reduction in inhibitory potency (IC50) of NF449 (hP2X1 K136A; hP2X1 K136A vs wild-type): 39 fold
Normalized Current (hP2X1 K136A; [NF449] 1.600E-09 M): 1
Normalized Current (hP2X1 K136A; [NF449] 2.000E-07 M): 0.205 and 0.1861 and 0.1104
Normalized Current (hP2X1 K136A; [NF449] 3.200E-10 M): 0.9716 and 0.9527 and 0.8864
Normalized Current (hP2X1 K136A; [NF449] 4.000E-08 M): 0.5079 and 0.4606 and 0.4322
Normalized Current (hP2X1 K136A; [NF449] 8.000E-09 M): 0.7634 and 0.7445 and 0.5647
reduction in inhibitory potency of NF449 (hP2X1 R292A; hP2X1 R292A vs wild-type): 31 fold
Normalized Current (hP2X1 R292A; [NF449] 1.000E-06 M): 0.000000
Normalized Current (hP2X1 R292A; [NF449] 1.600E-09 M): 1.038 and 1.012 and 0.9446
Normalized Current (hP2X1 R292A; [NF449] 2.000E-07 M): 0.09965 and 0.08304 and 0.07993
Normalized Current (hP2X1 R292A; [NF449] 3.200E-10 M): 1.08 and 0.9654 and 0.955
Normalized Current (hP2X1 R292A; [NF449] 4.000E-08 M): 0.4671 and 0.3945 and 0.2595
Normalized Current (hP2X1 R292A; [NF449] 8.000E-09 M): 0.8305 and 0.7889 and 0.7059

EC50 (hP2X3 WT; TEVC): 0.8 ± 0.1 µM
Normalized Current (hP2X3 WT; [ATP] 1.000E-04 M): 1.024 and 0.937 and 0.934
Normalized Current (hP2X3 WT; [ATP] 1.563E-06 M): 0.9021 and 0.8096 and 0.6657
Normalized Current (hP2X3 WT; [ATP] 2.500E-05 M): 1.229 and 0.9489 and 0.8224
Normalized Current (hP2X3 WT; [ATP] 3.906E-07 M): 0.1693 and 0.1661 and 0.1374
Normalized Current (hP2X3 WT; [ATP] 6.250E-06 M): 0.9276 and 0.9021 and 0.8266
Normalized Current (hP2X3 WT; [ATP] 9.766E-08 M): 0.0748 and 0.0739 and 0.04276
Hill slope of activation by ATP (hP2X3 WT; mean ± SD of three EC50 traces): 2.5 ± 0.6
Structure (SMILES): Nc1ncnc2c1ncn2[C@@H]1O[C@H](COP(=O)(O)OP(=O)(O)OP(=O)(O)O)[C@@H](O)[C@H]1O [ATP]
EC50 (P2X1 [2]): 0.5 to 1 µM
